# Experimental data: patent US4298525A, “Bis-indole-alkaloid” (Richter Gedeon Vegyeszeti Gyar RT, priority 1979, dated 1981)
# Where two headings read alike, the source gives them in different places.
# Assays:
# [1] = in vivo
# [2] = tested on: Ehrlich ascites carcinoma; test: effect on Ehrlich ascites carcinoma; type: in vivo, outbred Swiss mice; conditions: for Mean duration of life expressed in % of treated*/control: second part of table, maximum 400%
# Method: (§1) Transplantation was carried out into outbred Swiss mice at a level of 5×10^6 ascites tumor cells. Administration of RGH-4451 was started 24 hours after transplantation.
# [3] = therapeutic effect, MTD/min eff. D; conditions: in vivo
# NK/Ly ascites lymphoma = test: effect on NK/Ly ascites lymphoma; type: in vivo, outbred Swiss mice
# Method: Tests were carried out analogously with the Ehrlich ascites test.
# as §1
# P 388 leukemia = test: effect on P 388 leukemia tumors of mice; type: in vivo, BDF1 hybrid mice
# Description: 10^6 P 388 leukemia cells were transplanted into BDF1 hybrid mice intraperitoneally. Administration of RGH-4451 was started the day following the transplantation.
# P 388 tumor cells = test: inhibition of tumor growth in tissue culture, P 388; type: cell-based, mice; conditions: for inhibition at 0.1 µg/mL: Mus musculus, P388
# Method: The inhibition of tumor growth was initially studied in a tissue culture. A 20 mg./ml. solution of RGH-4451 in a Fischer medium was prepared and subsequently diluted to the desired concentration. The number of cells in the P 388 cultures was determined 24 and 48 hours after treatment.
# The inhibition was 43% after 24 hours and 89% after 48 hours. In in vitro tests the compound was 100-times less toxic than vincristine and 4-times less toxic than N-desmethyl-N-formyl-leurosine.
# S 180 sc. carcinoma = test: effect on S 180 sc. carcinoma; type: in vivo, Swiss mice; conditions: even at doses as high as 16 mg/kg i.p. daily
# Method: S 180 sc. tumor tissues were transplanted into Swiss mice subcutaneously. Treatment was started 24 hours after transplantation. RGH-4451 was administered once a day in a dose of 2, 4, 8 and 16 mg./kg., respectively intraperitoneally. The tumor growth inhibition was evaluated on the 11th day on the basis of the weight of tumors. The change of the weight of spleen was also monitored.
# [4] = overall tumor-growth inhibition and prolongation of life (summary of the tests); type: in vivo
# Method: From the tests described hereinabove it can be concluded that 1.0 to 10.0 mg./kg. daily doses or 20 mg./kg. single doses of RGH-4451 have a significant tumor-growth inhibition effect and prolong the duration of life.
# Guerin sc. carcinoma = test: effect on Guerin sc. carcinoma; type: in vivo, Wistar rats; conditions: for Mortality until the 22nd day/number of animals / Inhibition / Weight of tumor, treated: six subsequent days; for Inhibition / Weight of tumor, treated: 22nd day
# Method: Tumors were transplanted into Wistar rats subcutaneously. Administration of RGH-4451 was started on the day following the transplantation and the compound was administered six subsequent days intraperitoneally. The inhibition of tumor growth was evaluated on the 22nd day.
# [5] = acute toxicity on mice (LD50, i.p.); type: in vivo
# Method: The acute toxicity of RGH-4451 was tested on mice.
# The lethal dose killed the animals on the 2nd to 5th day.
# [6] = paralytic symptoms at sublethal doses; type: in vivo; conditions: even at sublethal doses; by contrast with vincristine
# [7] = animals; cited from earlier work
# [8] = human therapy; Rohn, R. et al.; cited from earlier work
# [9] = administration of vincristine; cited from earlier work
# [10] = 3.2 mg/kg i.p., 9 treatments, every day
# [11] = 3.2 mg/kg i.p., 9 treatments, every day, control 12.3 days
# [12] = 5.0 mg/kg i.p., 9 treatments, every day
# [13] = 5.0 mg/kg i.p., 9 treatments, every day, control 13.2 days
# [14] = 6.4 mg/kg i.p., 9 treatments, every day
# [15] = 6.4 mg/kg i.p., 9 treatments, every day, control 12.3 days
# [16] = 10 mg/kg i.p., 5 treatments, every second day
# [17] = 10 mg/kg i.p., 5 treatments, every second day, control 10.5 days
# [18] = 20 mg/kg i.p., 1 treatment, control 10.5 days
# [19] = 20 mg/kg i.p., 6 treatments, every day
# [20] = 20 mg/kg i.p., 6 treatments, every day, control 13.2 days
# [21] = 2.0 mg/kg i.p., 9 treatments, every day
# [22] = 4.0 mg/kg i.p., 9 treatments, every day
# [23] = 6.0 mg/kg i.p., 9 treatments, every day
smiles,measurement,setting,value
"CCC12CN3CCc4c([nH]c5ccccc45)C(C(=O)OC)(c4cc5c(cc4OC)N(C=O)C4C(O)(C(=O)OC)C(OC(C)=O)C6(CC)C=CCN7CCC54C76)CC(C3)C1O2 (centres unmarked) [N-desmethyl-N-formyl-leurosine, reference compound]",MTD/min eff. D,[1],4
same,effect of a large single dose on the duration of life,[2],did not increase the duration of life
CCOCN1c2cc(OC)c(C3(C(=O)OC)CC4CN(CCc5c3[nH]c3ccccc53)CC(O)(CC)C4)cc2C23CCN4CC=CC(CC)(C(OC(C)=O)C(O)(C(=O)OC)C12)C43 (centres unmarked) [RGH-4451],MTD/min eff. D,[3],10
same,Mean duration of life expressed in % of treated/control,NK/Ly ascites lymphoma; [10],181%
same,"Mean duration of life, treated",NK/Ly ascites lymphoma; [11],22.3 days
same,Mean duration of life expressed in % of treated/control,NK/Ly ascites lymphoma; [12],163%
same,"Mean duration of life, treated",NK/Ly ascites lymphoma; [13],21.5 days
same,Mean duration of life expressed in % of treated/control,NK/Ly ascites lymphoma; [14],166%
same,"Mean duration of life, treated",NK/Ly ascites lymphoma; [15],20.5 days
same,Mean duration of life expressed in % of treated/control,NK/Ly ascites lymphoma; [16],208%
same,"Mean duration of life, treated",NK/Ly ascites lymphoma; [17],21.8 days
same,tolerability of the large dose given every day (in words),"NK/Ly ascites lymphoma; 20 mg/kg every day, cannot be administered due to its toxicity",cannot be administered every
same,Mean duration of life expressed in % of treated/control,"NK/Ly ascites lymphoma; 20 mg/kg i.p., 1 treatment",185%
same,"Mean duration of life, treated",NK/Ly ascites lymphoma; [18],19.4 days
same,Mean duration of life expressed in % of treated/control,NK/Ly ascites lymphoma; [19],64%
same,"Mean duration of life, treated",NK/Ly ascites lymphoma; [20],8.5 days
same,duration of life of the tumorous animals (in words),NK/Ly ascites lymphoma; 3.2 to 6.4 mg/kg doses every day,considerably been prolonged
same,effect on duration of life (in words),NK/Ly ascites lymphoma; single 20 mg/kg dose,also effective
same,Mean duration of life expressed in % of treated/control,P 388 leukemia; [10],181%
same,"Mean duration of life, treated",P 388 leukemia; [11],22.3 days
same,Mean duration of life expressed in % of treated/control,P 388 leukemia; [12],163%
same,"Mean duration of life, treated",P 388 leukemia; [13],21.5 days
same,Mean duration of life expressed in % of treated/control,P 388 leukemia; [14],166%
same,"Mean duration of life, treated",P 388 leukemia; [15],20.5 days
same,Mean duration of life expressed in % of treated/control,P 388 leukemia; [16],208%
same,"Mean duration of life, treated",P 388 leukemia; [17],21.8 days
same,Mean duration of life expressed in % of treated/control,"P 388 leukemia; 20 mg/kg i.p., 1 treatment",185%
same,"Mean duration of life, treated",P 388 leukemia; [18],19.4 days
same,Mean duration of life expressed in % of treated/control,P 388 leukemia; [19],64%
same,"Mean duration of life, treated",P 388 leukemia; [20],8.5 days
same,growth of P 388 tumor cells (in words),P 388 tumor cells; 10^-1 μg./ml.,considerably inhibited
same,inhibition at 0.1 µg/mL,"P 388 tumor cells; 10^-1 μg./ml., after 24 hours",43%
same,inhibition at 0.1 µg/mL,"P 388 tumor cells; 10^-1 μg./ml., after 48 hours",89%
same,"in vitro toxicity, times less toxic than N-desmethyl-N-formyl-leurosine","P 388 tumor cells; in vitro, less toxic than N-desmethyl-N-formyl-leurosine",4 times
same,"in vitro toxicity, times less toxic than vincristine","P 388 tumor cells; in vitro, less toxic than vincristine",100 times
same,decrease in the weight of spleen,S 180 sc. carcinoma,no substantial decrease in the weight of spleen
same,single dose with a significant tumor-growth inhibition effect and prolongation of life,[4],20 mg/kg
same,Mortality until the 22nd day/number of animals,Guerin sc. carcinoma; 2.0 mg/kg i.p.,0/6
same,Inhibition,Guerin sc. carcinoma; 2.0 mg/kg i.p.,43
same,"Weight of tumor, treated","Guerin sc. carcinoma; 2.0 mg/kg i.p., control 18.9",10.7
same,Mortality until the 22nd day/number of animals,Guerin sc. carcinoma; 6.0 mg/kg i.p.,0/6
same,Inhibition,Guerin sc. carcinoma; 6.0 mg/kg i.p.,81
same,"Weight of tumor, treated","Guerin sc. carcinoma; 6.0 mg/kg i.p., control 44.9",8.69
same,Mortality until the 22nd day/number of animals,Guerin sc. carcinoma; 10.0 mg/kg i.p.,0/6
same,Inhibition,Guerin sc. carcinoma; 10.0 mg/kg i.p.,68
same,"Weight of tumor, treated","Guerin sc. carcinoma; 10.0 mg/kg i.p., control 44.9",14.64
same,Mortality until the 22nd day/number of animals,Guerin sc. carcinoma; 14.0 mg/kg i.p.,5/6
same,growth of Guerin carcinoma (in words),Guerin sc. carcinoma; 2 to 10 mg/kg i.p. doses,strongly inhibited
same,LD50 of RGH-4451 as multiple of that of N-desmethyl-N-formyl-leurosine,[5]; i.p.,2.5 times
same,LD50 of RGH-4451 as multiple of that of vinblastine,[5]; i.p.,about 10 times
same,LD50 of RGH-4451 as multiple of that of vincristine,[5]; i.p.,17 fold
same,paralytic symptoms accompanying death,[5]; lethal dose,not accompanied by paralytic symptoms
same,LD50,"[5]; mouse, in vivo, ip",70 mg/kg
same,crippling of surviving animals,"[5]; survivors, in contrast with vincristine",not crippled even temporarily
same,Mean duration of life expressed in % of treated/control,"[2]; 1.0 mg/kg i.p., 9 treatments, every day",15.4%
same,"Mean duration of life, treated","[2]; 1.0 mg/kg i.p., 9 treatments, every day, control 15.4 days",54.2 days
same,On the 65th day alive,[2]; [21],9/10
same,On the 65th day tumor-free,[2]; [21],6/10
same,"Mean duration of life, treated","[2]; 2.0 mg/kg i.p., 9 treatments, every day, control 16.4 days, first part of table",43.0 days
same,"Mean duration of life, treated","[2]; 2.0 mg/kg i.p., 9 treatments, every day, control 16.4 days, second part of table (65th day)",64.1 days
same,Mean duration of life expressed in % of treated/control,"[2]; 2.0 mg/kg i.p., 9 treatments, every day, first part of table",261%
same,Mean duration of life expressed in % of treated*/control,[2]; [21],392%
same,On the 65th day alive,[2]; [22],8/10
same,On the 65th day tumor-free,[2]; [22],7/10
same,"Mean duration of life, treated","[2]; 4.0 mg/kg i.p., 9 treatments, every day, control 16.4 days, first part of table",36.4 days
same,"Mean duration of life, treated","[2]; 4.0 mg/kg i.p., 9 treatments, every day, control 16.4 days, second part of table (65th day)",62.9 days
same,Mean duration of life expressed in % of treated/control,"[2]; 4.0 mg/kg i.p., 9 treatments, every day, first part of table",222%
same,Mean duration of life expressed in % of treated*/control,[2]; [22],384%
same,On the 65th day alive,[2]; [23],8/10
same,On the 65th day tumor-free,[2]; [23],4/10
same,"Mean duration of life, treated","[2]; 6.0 mg/kg i.p., 9 treatments, every day, control 15.9 days, first part of table",48.2 days
same,"Mean duration of life, treated","[2]; 6.0 mg/kg i.p., 9 treatments, every day, control 16.7 days, second part of table (65th day)",65.8 days
same,Mean duration of life expressed in % of treated/control,"[2]; 6.0 mg/kg i.p., 9 treatments, every day, first part of table",303%
same,Mean duration of life expressed in % of treated*/control,[2]; [23],394%
same,On the 65th day alive,"[2]; 20 mg/kg i.p., 1 treatment",8/10
same,On the 65th day tumor-free,"[2]; 20 mg/kg i.p., 1 treatment",3/10
same,"Mean duration of life, treated","[2]; 20 mg/kg i.p., 1 treatment, control 16.7 days, second part of table (65th day)",65.5 days
same,Mean duration of life expressed in % of treated*/control,"[2]; 20 mg/kg i.p., 1 treatment",392%
same,antitumor effect (in words),[2]; 2 to 6 mg/kg once a day,remarkable antitumor effect
same,proportion of treated animals tumor-free on the 65th day (in words),[2]; 2 to 6 mg/kg once a day,a great part of the treated animals is tumor-free on the 65th day
same,paralytic symptoms,[6],entirely lacking
CC[C@]12CN3CCc4c([nH]c5ccccc45)[C@@](C(=O)OC)(c4cc5c(cc4OC)N(C)[C@H]4[C@@](O)(C(=O)OC)[C@H](OC(C)=O)[C@]6(CC)C=CCN7CC[C@]54[C@@H]76)C[C@H](C3)[C@H]1O2 [leurosine],antitumor activity,[7],antitumor activity of leurosine has been proved on animals
same,toxicity on the hematopoietic organs,[8],unreasonably high toxicity on the hematopoietic organs
"CC[C@]1(O)C[C@H]2CN(CCc3c([nH]c4ccccc34)[C@@](C(=O)OC)(c3cc4c(cc3OC)N(C=O)[C@H]3[C@@](O)(C(=O)OC)[C@H](OC(C)=O)[C@]5(CC)C=CCN6CC[C@]43[C@@H]65)C2)C1 [vincristine, N-desmethyl-N-formylvinblastine]",toxic side effects,[9],paralytic symptoms due to neurotoxicity
same,MTD/min eff. D,[1],6
same,effect of a large single dose on the duration of life,[2],did not increase the duration of life
